# Experimental data reported in patent publication US10300065B2, “Method of treating or prevention of atherothrombotic events in patients with history of myocardial infarction” (ASTRAZENECA AB, priority 2015, dated 2019).
# Tested on: patients with a history of myocardial infarction
# Assay: PEGASUS-TIMI 54 trial, efficacy endpoints (intention-to-treat / full analysis set)
# Format: in vivo, human
# Excerpt: The PEGASUS-TIMI 54 trial (also referred to as the PEGASUS trial or PEGASUS study herein) was a randomized, double-blind, placebo-controlled multinational clinical trial that enrolled over 21,000 patients at 1,161 sites in 31 countries. The protocol was approved by the relevant ethics committees at all participating sites. In the U.S., the PEGASUS trial was assigned a ClinicalTrials.gov number of NCT01225562.
# Patients could be randomized regardless of their prior adenosine diphosphate (ADP) receptor blocker therapy or a lapse in therapy.
# Randomization was performed using a central computerized telephone or web based system, and allocation was double-blind.
# All patients enrolled in the PEGASUS trial were instructed to take open label aspirin at a dose of 75 to 150 mg daily.
# A total of 1360 primary endpoint events would be required to provide approximately 90% power to detect a 20% relative risk reduction with the 90 mg twice daily dose and approximately 83% power to detect a 19% relative risk reduction with the 60 mg twice daily dose when each dose was compared individually with placebo. The primary efficacy analysis was conducted on an intention-to-treat basis, with each of the two doses individually compared to placebo, as a time to event analysis from randomization to the first occurrence of any element of the primary composite endpoint: cardiovascular death, myocardial infarction, or stroke. […] An exploratory analysis of both doses combined compared with placebo was prespecified.
# [1] = 60 mg bd, 5695 patients with a coronary stent
# [2] = 60 mg bid (N = 7045), at 3 years
# [3] = 60 mg bid vs. placebo (N = 6958)
smiles,measurement,setting,value
"CCCSc1nc(N[C@@H]2C[C@H]2c2ccc(F)c(F)c2)c2nnn([C@@H]3C[C@H](OCCO)[C@@H](O)[C@H]3O)c2n1 [Ticagrelor, (1S,2S,3R,5S)-3-[7-{[(1R,2S)-2-(3,4-difluorophenyl)cyclopropyl]amino}-5-(propylthio)-3H-[1,2,3]-triazolo[4,5-d]pyrimidin-3-yl]-5-(2-hydroxyethoxy)cyclopentane-1,2-diol]",Time to first stent thrombosis: HR,60 mg bd vs placebo,0.82
same,"Composite of CV Death/MI/Stroke, landmark: KM % at 12 months","60 mg bd, 1-360 days",2.7%
same,"Composite of CV Death/MI/Stroke, landmark: Patients with events","60 mg bd, 1-360 days",189
same,"Composite of CV Death/MI/Stroke, landmark: Patients with events (%)","60 mg bd, 1-360 days",(2.7%)
same,Stent thrombosis: Patients (%) with events,[1],(0.7%)
same,Stent thrombosis: Patients with events,[1],41
same,"Composite of CV Death/MI/Stroke, landmark: Patients with events","60 mg bd, 361 days or more",298
same,"Composite of CV Death/MI/Stroke, landmark: Patients with events (%)","60 mg bd, 361 days or more",(4.4%)
same,Stent thrombosis: KM %,"60 mg bd, at 36 months",0.8%
same,"Composite of CV Death/MI/Stroke, landmark: KM % at 24 months","60 mg bd, cumulative from day 361 to day 720",2.7%
same,"Composite of CV Death/MI/Stroke, landmark: KM % at 36 months","60 mg bd, cumulative from day 361 to day 1080",5.2%
same,MI: ARR (%),60 mg bid,0.72%
same,MI: NNT,60 mg bid,139
same,Stroke: ARR (%),60 mg bid,0.47%
same,Stroke: NNT,60 mg bid,213
same,All Stroke: n,60 mg bid (N = 7045),91
same,Cardiovascular Death or Myocardial infarction: 3-year Kaplan-Meier estimate,60 mg bid (N = 7045),(6.77) %
same,Cardiovascular Death or Myocardial infarction: n,60 mg bid (N = 7045),422
same,"Cardiovascular Death, Myocardial infarction, or Stroke: 3-year Kaplan-Meier estimate",60 mg bid (N = 7045),7.77%
same,"Cardiovascular Death, Myocardial infarction, or Stroke: n",60 mg bid (N = 7045),487
same,Cardiovascular Death: n,60 mg bid (N = 7045),174
same,Coronary Heart Disease Death or Myocardial infarction: 3-year Kaplan-Meier estimate,60 mg bid (N = 7045),(5.57) %
same,Coronary Heart Disease Death or Myocardial infarction: n,60 mg bid (N = 7045),360
same,"Coronary Heart Disease Death, Myocardial infarction, or Stroke: 3-year Kaplan-Meier estimate",60 mg bid (N = 7045),(7.09) %
same,"Coronary Heart Disease Death, Myocardial infarction, or Stroke: n",60 mg bid (N = 7045),445
same,Coronary Heart Disease Death: 3-year Kaplan-Meier estimate,60 mg bid (N = 7045),(1.72) %
same,Coronary Heart Disease Death: n,60 mg bid (N = 7045),106
same,Death from any cause: n,60 mg bid (N = 7045),289
same,Hospitalization for Unstable Angina: n,60 mg bid (N = 7045),39
same,Ischemic Stroke: 3-year Kaplan-Meier estimate,60 mg bid (N = 7045),(1.28) %
same,Ischemic Stroke: n,60 mg bid (N = 7045),78
same,Myocardial infarction as first-occurring component of the composite: n (patients with event),60 mg bid (N = 7045),283
same,Myocardial infarction: n,60 mg bid (N = 7045),285
same,Stroke as first-occurring component of the composite: n (patients with event),60 mg bid (N = 7045),88
same,Transient Ischemic Attack: n,60 mg bid (N = 7045),17
same,Urgent Coronary Revascularization for Unstable Angina: n,60 mg bid (N = 7045),62
same,Hospitalization for Unstable Angina: (%),[2],(0.61) %
same,Transient Ischemic Attack: (%),[2],(0.27) %
same,Urgent Coronary Revascularization for Unstable Angina: (%),[2],(0.95) %
same,Cardiovascular Death or Myocardial infarction: HR,60 mg bid vs Placebo,0.85
same,"Cardiovascular Death, Myocardial infarction, or Stroke: HR",60 mg bid vs Placebo,0.84
same,Cardiovascular Death: HR,60 mg bid vs Placebo,0.83
same,Coronary Heart Disease Death or Myocardial infarction: HR,60 mg bid vs Placebo,0.84
same,"Coronary Heart Disease Death, Myocardial infarction, or Stroke: HR",60 mg bid vs Placebo,0.83
same,Coronary Heart Disease Death: HR,60 mg bid vs Placebo,0.80
same,Coronary stent thrombosis: RRR,60 mg bid vs Placebo,18%
same,Death from any cause: HR,60 mg bid vs Placebo,0.89
same,Hospitalization for Unstable Angina: HR,60 mg bid vs Placebo,1.05
same,Ischemic Stroke: HR,60 mg bid vs Placebo,0.76
same,Transient Ischemic Attack: HR,60 mg bid vs Placebo,1.00
same,Urgent Coronary Revascularization for Unstable Angina: HR,60 mg bid vs Placebo,0.82
same,"coronary heart disease death, myocardial infarction, or stroke: RRR",60 mg bid vs Placebo,17%
same,"Irreversible harm (CV death, MI, stroke, ICH, or fatal bleeding): HR",[3],0.86
same,"Irreversible harm (CV death, MI, stroke, ICH, or fatal bleeding): RRR (%)",[3],14%
same,"Net clinical benefit (CV death, MI, stroke, or TIMI major bleeding): HR",[3],0.95
same,"Net clinical benefit (CV death, MI, stroke, or TIMI major bleeding): RRR (%)",[3],5%
same,"ischemic events prevented if 10,000 patients were started on treatment versus placebo","60 mg bid, intention-to-treat data",42
same,Time to first stent thrombosis: HR,90 mg bd vs placebo,0.64
same,"Composite of CV Death/MI/Stroke, landmark: KM % at 12 months","90 mg bd, 1-360 days",2.8%
